This is an account of results in BindingDB's records for doi:10.1016/0960-894X(95)00398-D (1995).

In this experiment the target is Beta-2 adrenergic receptor (Rattus norvegicus) (UniProt P10608). Briefly: Compound was evaluated for its binding affinity to beta-2 receptor in rat brain using [3H]- DHA radioligand assay.

SMILES strings stand for the structures.

Beta-2 adrenergic receptor (Rattus norvegicus), sequence (P10608 whole entry, looked up): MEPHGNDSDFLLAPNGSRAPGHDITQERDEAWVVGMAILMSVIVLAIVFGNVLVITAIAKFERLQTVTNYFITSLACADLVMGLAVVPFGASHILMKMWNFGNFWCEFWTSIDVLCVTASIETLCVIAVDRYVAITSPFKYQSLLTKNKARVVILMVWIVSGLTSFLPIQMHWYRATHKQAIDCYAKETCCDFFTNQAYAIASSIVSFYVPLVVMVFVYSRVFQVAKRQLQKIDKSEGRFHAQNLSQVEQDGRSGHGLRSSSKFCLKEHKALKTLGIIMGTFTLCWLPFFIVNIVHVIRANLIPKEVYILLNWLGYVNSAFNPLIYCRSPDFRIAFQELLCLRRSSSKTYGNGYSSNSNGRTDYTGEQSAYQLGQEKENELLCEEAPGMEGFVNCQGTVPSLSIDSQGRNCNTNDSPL

As to `COc1cccc2c1CCC[C@H]2CN(C)CCc1ccc2ccoc2c1` [A-80426], affinity was put at a Ki of 1740 nM.
